# Reference: patent US20220226479A1, “CELL LAYER PERMEATION PROMOTER. COMPOSITION FOR FACILITATING DRUG ABSORPTION. AND PHARMACEUTICAL COMPOSITION” (University of Tsukuba, priority 2019, published 2022)
# Entries after “also recorded” stand apart in the source; their conditions may differ. Where a SMILES comes first, the peptide text is derived from it. Bridges are numbered along the chain shown (N, C = ends). [ ]: non-standard residue; d: D form. The star is where a group is joined. ξ: configuration not given here. Decanoyl(3ξ-OH) = CCCCCCCC(O)CC(=O)*; Decanoyl = CCCCCCCCCC(=O)*
# Tested on: MDCK II cells
# Test: Permeation evaluation test with FD4 marker (dextran, molecular weight 4000) across a model epithelial cell layer in a transwell
# Assay type: cell-based, dog
# Details: for cell-layer-permeation-promoting effect (permeation of FD4, result in words): 0.003 mM in 1 v/v % DMSO, FIG. 1-4; for increase/accumulation in the amount permeating the receiver solution, late period / reversibility of the permeation-accelerating effect: 0.003 mM; for increase/accumulation in the amount permeating the receiver solution, late period: period from two hours to five hours after the start of testing, test example 1; for reversibility of the permeation-accelerating effect: recovery of tight junctions and other cell bonding structures; for increase in the amount of FD4 permeating the receiver solution with respect to the negative control (factor): test substance 0.003 mM in 1 v/v % DMSO, two hours after the start of testing, test example 1, FIG. 1; for cell-layer-permeation-promoting effect compared with cu538-2: both at 0.003 mM, test examples 2-4, FIG. 2-4
# Protocol: MDCK II cells derived from dog kidney epithelial cells were used to create a model of an epithelial cell layer in which a transwell was used, and a test to evaluate permeation by substances was conducted. Specifically, MDCK II cells in a logarithmic growth phase were sowed in a transwell (diameter: 6.5 mm, collagen coat, pore size: 0.4 μm) (trade name “Corning Transwell 3495,” made by Corning Co., Ltd.) at a cell count of 3.4 to 4.0×10^4 cells, a 24-hole well plate was used as basal-side wells, and 600 μL of a cell growth medium was introduced into each of apical-side wells and the basal-side wells. The medium was replaced daily to form a layer, and three days after sowing the medium was replaced with a Hank's balanced salt solution (HESS) for measurement. After incubation for one hour at 37° C., layer formation was confirmed by measuring the transepithelial electrical resistance (TEER) using a resistance value measurement system (trade name “Millicell-ERS,” made by Millipore Corp.). After layer formation was confirmed, the apical-side medium was replaced by 100 μL of HESS to which a marker substance (FD4: […]) (made by Sigma KK) having a molecular weight of 4000 was added so as to reach a concentration of 1.0 w/v %, and test substances were added so as to reach the final concentrations indicated below. The transwell was shifted, at intervals of 30 minutes until five hours after addition of the marker substance, to the basal-side wells into which the new HESS entered, and the HESS in the remaining basal-side wells (referred to as a “receiver solution” below) was retrieved 50 μL at a time per well in a 96-hole well plate. The fluorescence intensity of the retrieved HESS at an excitation wavelength of 485 nm and a fluorescence wavelength of 528 nm was measured using a fluorescent plate reader (trade name “Wallac 1420 ARVO MX,” made by Perkin Elmer Corp.).
# A test to evaluate permeation by substances was conducted in the same manner as in test example 1, except that the test substances were as indicated below.
SMILES,"cell-layer-permeation-promoting effect (permeation of FD4, result in words)","increase/accumulation in the amount permeating the receiver solution, late period",reversibility of the permeation-accelerating effect,increase in the amount of FD4 permeating the receiver solution with respect to the negative control (factor),"amount of marker substance permeating the receiver solution over time (positive control) (0.0001 mM in 1 v/v % DMSO, over five hours after the start of testing)",cell-layer-permeation-promoting effect compared with cu538-2
"CCCCCCC[C@H](O)CC(=O)N[C@@H](CC(C)C)C(=O)N[C@H](CCC(=O)O)C(=O)N[C@H](CCC(N)=O)C(=O)N[C@@H](C(=O)N[C@H](CC(C)C)C(=O)N[C@@H](CCC(N)=O)C(=O)N[C@@H]1COC(=O)[C@H]([C@@H](C)CC)NC(=O)[C@@H](CCC(N)=O)NC(=O)[C@H](CC(C)C)NC(=O)[C@H](CC(C)C)NC(=O)[C@@H](CCC(N)=O)NC(=O)[C@@H](CC(C)C)NC(=O)[C@@H](C(C)C)NC1=O)C(C)C (single isomer, unassigned) [cu538-1]",accelerated permeation of substances in the paracellular pathway,substantially no increase/accumulation,reversible,four,–,–
"C/C1=C/C(=O)O[C@@H]2C[C@@H](CC[C@H](C)/C=C\C=C\CC1)O[C@@](O)([C@@H]1CSC(=O)N1)C2 [Latrunclin A, reference compound]",–,–,–,–,continuous increase/accumulation,–
CCCCCCCCCC(=O)N[C@@H](CC(C)C)C(=O)N[C@H](CCC(=O)O)C(=O)N[C@H](CCC(N)=O)C(=O)N[C@@H](C(=O)N[C@H](CC(C)C)C(=O)N[C@@H](CCC(N)=O)C(=O)N[C@@H]1COC(=O)[C@H]([C@@H](C)CC)NC(=O)[C@@H](CCC(N)=O)NC(=O)[C@H](CC(C)C)NC(=O)[C@H](CC(C)C)NC(=O)[C@@H](CCC(N)=O)NC(=O)[C@@H](CC(C)C)NC(=O)[C@@H](C(C)C)NC1=O)C(C)C [NY-38] (Decanoyl-L[dE][dQ][dV][dL]Q[dS][dV][dL][dQ]LL[dQ]I; ester 7-C),accelerated permeation of substances in the paracellular pathway; also recorded: cell-layer-permeation-promoting effect was found,–,reversible,–,–,more remarkable
CCCCCCC[C@@H](O)CC(=O)N[C@@H](CC(C)C)C(=O)N[C@H](CCC(=O)O)C(=O)N[C@H](CCC(N)=O)C(=O)N[C@@H](C(=O)N[C@H](CC(C)C)C(=O)N[C@@H](CCC(N)=O)C(=O)N[C@@H]1COC(=O)[C@H]([C@@H](C)CC)NC(=O)[C@@H](CCC(N)=O)NC(=O)[C@H](CC(C)C)NC(=O)[C@H](CC(C)C)NC(=O)[C@@H](CCC(N)=O)NC(=O)[C@@H](CC(C)C)NC(=O)[C@@H](C(C)C)NC1=O)C(C)C [cu538-2],accelerated permeation of substances in the paracellular pathway,substantially no increase/accumulation,reversible,eight,–,–
CCCCCCCC(O)CC(=O)N[C@@H](CC(C)C)C(=O)N[C@H](CCC(=O)O)C(=O)N[C@H](CCC(N)=O)C(=O)N[C@@H](C(=O)N[C@H](CC(C)C)C(=O)N[C@@H](C)C(=O)N[C@@H]1COC(=O)[C@H]([C@@H](C)CC)NC(=O)[C@@H](CCC(N)=O)NC(=O)[C@H](CC(C)C)NC(=O)[C@H](CC(C)C)NC(=O)[C@@H](CCC(N)=O)NC(=O)[C@@H](CC(C)C)NC(=O)[C@@H](C(C)C)NC1=O)C(C)C (stereo partly drawn) [cu592] ({Decanoyl(3ξ-OH)}-L[dE][dQ][dV][dL]A[dS][dV][dL][dQ]LL[dQ]I; ester 7-C),–,–,–,–,–,equivalent
CCCCCCCC(O)CC(=O)N[C@@H](CC(C)C)C(=O)N[C@H](CCC(=O)O)C(=O)N[C@H](CCC(N)=O)C(=O)N[C@@H](C(=O)N[C@H](CC(C)C)C(=O)N[C@@H](CCC(N)=O)C(=O)N[C@@H]1COC(=O)[C@H]([C@@H](C)CC)NC(=O)[C@@H](CCC(N)=O)NC(=O)[C@H](CC(C)C)NC(=O)[C@H](CC(C)C)NC(=O)[C@@H](C)NC(=O)[C@@H](CC(C)C)NC(=O)[C@@H](C(C)C)NC1=O)C(C)C (stereo partly drawn) [cu605] ({Decanoyl(3ξ-OH)}-L[dE][dQ][dV][dL]Q[dS][dV][dL][dA]LL[dQ]I; ester 7-C),found to have an effect,–,–,–,–,–
CCCCCCCC(O)CC(=O)N[C@@H](CC(C)C)C(=O)N[C@H](CCC(=O)O)C(=O)N[C@H](CCC(N)=O)C(=O)N[C@@H](C(=O)N[C@H](CC(C)C)C(=O)N[C@@H](CCC(N)=O)C(=O)N[C@@H]1COC(=O)[C@H]([C@@H](C)CC)NC(=O)[C@@H](C)NC(=O)[C@H](CC(C)C)NC(=O)[C@H](CC(C)C)NC(=O)[C@@H](CCC(N)=O)NC(=O)[C@@H](CC(C)C)NC(=O)[C@@H](C(C)C)NC1=O)C(C)C (stereo partly drawn) [cu619] ({Decanoyl(3ξ-OH)}-L[dE][dQ][dV][dL]Q[dS][dV][dL][dQ]LL[dA]I; ester 7-C),found to have an effect,–,–,–,–,more remarkable
